From patent US5185338A, “Medicament for treating cerebral insufficiency diseases, novel 2-(1-piperazinyl)-4-phenylcycloalkanopyrimidine derivatives, and process for the production thereof” (Dainippon Pharmaceutical Co., Ltd., priority 1989, dated 1993)

What follows are compounds tested on scopolamine-induced hypermotility (assay: Antagonistic effect on scopolamine-induced hypermotility). Settings: Mus musculus, po; 3 mg/kg, orally; scopolamine hydrobromide 1 mg/kg i.p.; complete antagonism to motility level of non-dosed animals=100%; read-out: Inhibitory ratio (% antagonism of scopolamine-induced hypermotility).
Type: in vivo, mice (Std-ddY strain)
Procedure: Antagonistic effect on scopolamine-induced hypermotility:
A test compound was orally administered to each mouse, and 90 minutes after the administration, each one test animal was placed within a test cage (25×35×30 cm). After 30 minutes, scopolamine hydrobromide (1 mg/kg) was intraperitoneally administered to the mice and then the motility was measured with Animex activity meter for 30 minutes. The effect of test compounds was expressed as % antagonism (complete antagonism to the motility level of non-dosed animals=100%).

`Fc1ccc(-c2nc(N3CCN(Cc4ccccc4)CC3)nc3c2CCC3)cc1` [Ex. 19] was tested, and the inhibition in vivo at 3 mg/kg was 64.4%.

Same assay, conditions: Mus musculus, po; 10 mg/kg, orally; scopolamine hydrobromide 1 mg/kg i.p.; complete antagonism to motility level of non-dosed animals=100%; read-out: Inhibitory ratio (% antagonism of scopolamine-induced hypermotility)

In order of rising inhibition in vivo at 10 mg/kg:
1. Fc1ccc(-c2nc(N3CCN(Cc4ccccc4)CC3)nc3c2CCCC3)cc1 [Ex. 31]  61.1%
2. CN1CCN(c2nc3c(c(-c4ccc(F)cc4)n2)CCC3)CC1 [Ex. 4]  66%
3. CCN1CCN(c2nc3c(c(-c4ccc(F)cc4)n2)CCCCC3)CC1 [Ex. 8]  80%

Same assay, conditions: Mus musculus, po; 30 mg/kg, orally; scopolamine hydrobromide 1 mg/kg i.p.; complete antagonism to motility level of non-dosed animals=100%; read-out: Inhibitory ratio (% antagonism of scopolamine-induced hypermotility)

In order of falling inhibition in vivo at 30 mg/kg:
1. O=C(CCCN1CCN(c2nc3c(c(-c4ccc(F)cc4)n2)CCC3)CC1)c1ccc(F)cc1 [Ex. 46, 2-[4-[3-(4-fluorobenzoyl)propyl]-1-piperazinyl]-4-(4-fluorophenyl)-6,7-dihydro-5H-cyclopentapyrimidine]  100%
2. CCCN1CCN(c2nc3c(c(-c4ccc(F)cc4)n2)CCC3)CC1 [Ex. 13, 2-(4-n-propyl-1-piperazinyl)-4-(4-fluorophenyl)-6,7-dihydro-5H-cyclopentapyrimidine]  97.6%
3. Fc1ccc(-c2nc(N3CCN(Cc4ccccc4)CC3)nc3c2CCCCC3)cc1 [Ex. 38]  81.6%
4. CCN1CCN(c2nc3c(c(-c4ccc(F)cc4)n2)CCC3)CC1 [Ex. 5]  81.4%
5. Fc1ccc(-c2nc(N3CCN(C4CCCC4)CC3)nc3c2CCC3)cc1 [Ex. 12]  80.9%
6. CCN1CCN(c2nc3c(c(-c4ccccc4)n2)CCCCCC3)CC1 [Ex. 17]  72.5%
7. CCN1CCN(c2nc3c(c(-c4ccc(OC)cc4)n2)CCC3)CC1 [Ex. 24]  72.5%
8. CCN1CCN(c2nc3c(c(-c4ccc(F)cc4)n2)CC(C)CC3)CC1 (centres unmarked) [Ex. 42]  71%
9. CN1CCN(c2nc3c(c(-c4cccc(F)c4)n2)CCC3)CC1 [Ex. 21]  70.5%
10. OCCN1CCN(c2nc3c(c(-c4ccc(F)cc4)n2)CCC3)CC1 [Ex. 6]  64.5%
11. CC1CCc2nc(N3CCNCC3)nc(-c3ccc(F)cc3)c2C1 (centres unmarked) [Ex. 40]  64.5%
12. CC1CCc2nc(N3CCN(CCO)CC3)nc(-c3ccc(F)cc3)c2C1 (centres unmarked) [Ex. 43]  64.2%
13. c1ccc(CN2CCN(c3nc4c(c(-c5ccccc5)n3)CCCCC4)CC2)cc1 [Ex. 37]  62.9%
14. CN1CCN(c2nc3c(c(-c4ccc(Cl)cc4)n2)CCCC3)CC1 [Ex. 32]  62.6%
15. CC1CCc2nc(N3CCN(C)CC3)nc(-c3ccc(F)cc3)c2C1 (centres unmarked) [Ex. 41]  60.8%
16. O=C(c1ccco1)N1CCN(c2nc3c(c(-c4ccc(F)cc4)n2)CCC3)CC1 [Ex. 45, 2-[4-(2-furoyl)-1-piperazinyl]-4-(4-fluorophenyl)-6,7-dihydro-5H-cyclopentapyrimidine]  60.4%
17. CCN1CCN(c2nc3c(c(-c4ccc(F)cc4)n2)CCCC3)CC1 [Ex. 29]  59.1%
18. Fc1ccc(-c2nc(N3CCN(c4ccccn4)CC3)nc3c2CCC3)cc1 [Ex. 39]  55.6%
19. c1ccc(CN2CCN(c3nc4c(c(-c5ccccc5)n3)CCC4)CC2)cc1 [Ex. 18]  54.4%
20. CCN1CCN(c2nc3c(c(-c4ccccc4)n2)CCCCC3)CC1 [Ex. 16]  54.2%
21. COc1ccc(-c2nc(N3CCN(C)CC3)nc3c2CCC3)cc1 [Ex. 23]  52.4%
22. OCCN1CCN(c2nc3c(c(-c4ccc(Cl)cc4)n2)CCCC3)CC1 [Ex. 34]  50.2%
23. CCN1CCN(c2nc3c(c(-c4ccc(Cl)cc4)n2)CCCC3)CC1 [Ex. 33]  42.3%
24. Fc1ccc(-c2nc(N3CCN(c4ccccc4)CC3)nc3c2CCC3)cc1 [Ex. 20]  35.2%

Each compound was assayed on brain serotonin metabolite, 5-hydroxyindole-3-acetic acid (5-HIAA) (assay: Increasing effect on concentration of brain serotonin metabolite (5-HIAA)). Settings: Mus musculus, 2 h, two hours after treatment, 5-HIAA level of non-dosed animals=100%.
Type: in vivo, mice (Std-ddY strain)
Excerpt: Increasing effect on concentration of brain serotonin metabolite:
A group of 5 male mice (Std-ddY strain, 25-30 g) was used for examining effect of the test compounds on concentration of a brain serotonin metabolite, 5-hydroxyindole-3-acetic acid (5-HIAA).
Mice were killed by decapitation two hours after the treatment with the test compounds. Brains were quickly taken out, homogenized in 1N formic acid-acetone solution, and centrifuged in a refrigerated ultracentrifuge. The supernatant was evaporated by blowing with N2 gas, and then, the residue was again dissolved in 0.01N acetic acid, and served for determining 5-HIAA concentration by high performance liquid chromatography with electrochemical detection. The effect of the test compounds on 5-HIAA concentration was shown as % of control (5-HIAA level of non-dosed animals=100%).

In order of falling response vs control in vivo at 100 mg/kg:
1. CCN1CCN(c2nc3c(c(-c4ccc(F)cc4)n2)CCC3)CC1 [Ex. 5]  161%
2. CCN1CCN(c2nc3c(c(-c4ccc(F)cc4)n2)CCCC3)CC1 [Ex. 29]  149%
3. CN1CCN(c2nc3c(c(-c4ccc(F)cc4)n2)CCC3)CC1 [Ex. 4]  122%
4. OCCN1CCN(c2nc3c(c(-c4ccc(F)cc4)n2)CCC3)CC1 [Ex. 6]  119%
